In US11007169B2, “Cis-gnetin H and trans-gnetin H as therapeutic agents” (MIDDLE TENNESSEE STATE UNIVERSITY, priority 2014, dated 2021):

Tests used:
[1] = system: A549 lung cancer xenografts; assay: Xenograft studies, A549 lung tumors in nude mice; type: in vivo; conditions: 2.4 mg/kg
Description: 14 male nude mice (6 weeks old) were injected subcutaneously on both flanks with 2×10^6 A549 cells. […] Tumor sizes were measured 3 times per week, and volumes were calculated using the formula [length (mm)]×[width (mm)]^2/2 (Warburton et al., Clin. Cancer Res. 2004; 10(7): 2512-2524).

[2] = system: HL-60 (human leukemia) cells; conditions: Kang et al. 2003, cited from earlier work

For `Oc1ccc(/C=C\c2c3c(cc4c2[C@H](c2cc(O)cc(O)c2)[C@@H](c2ccc(O)cc2)O4)O[C@H](c2ccc(O)cc2)[C@H]3c2cc(O)cc(O)c2)cc1` [cis-gnetin H], the “less increase in size of large tumors compared to the untreated control” value ([1]; large tumors) was 68%, the “food intake or body weight of treated animals” value ([1]; nude mice) was “no apparent alteration on food intake or body weight” and the “less increase in size of small tumors compared to the untreated control” value ([1]; small tumors) was 39%.

For `Oc1ccc(/C=C/c2c3c(cc4c2[C@H](c2cc(O)cc(O)c2)[C@@H](c2ccc(O)cc2)O4)O[C@H](c2ccc(O)cc2)[C@H]3c2cc(O)cc(O)c2)cc1` [trans-gnetin H], the “increase of the sub-G1 population” value ([2]; HL-60 cells, 25 μM) is given as 11% and the IC50 ([2]; read-out: IC50, viability of HL-60 cells) is given as 25 µM.
